The text below walks through data of ChEMBL document CHEMBL1156181, “B-Raf kinase inhibitors: hit enrichment through scaffold hopping” (Bioorg Med Chem Lett, 2010).

A value given as a limit tells only on which side of the number the result lay.

The target in assay [1] is Serine/threonine-protein kinase B-raf (Homo sapiens, UniProt P15056). In words: Inhibition of B-Raf.
Assay [2] addresses Tyrosine-protein kinase BTK (Homo sapiens, UniProt Q06187). In words: Inhibition of BTK.
Assay [3] deals with Tyrosine-protein kinase Lyn (Homo sapiens, UniProt P07948). As to the kind of experiment: Inhibition of LYN.
Chain of Tyrosine-protein kinase Lyn (P07948 whole entry): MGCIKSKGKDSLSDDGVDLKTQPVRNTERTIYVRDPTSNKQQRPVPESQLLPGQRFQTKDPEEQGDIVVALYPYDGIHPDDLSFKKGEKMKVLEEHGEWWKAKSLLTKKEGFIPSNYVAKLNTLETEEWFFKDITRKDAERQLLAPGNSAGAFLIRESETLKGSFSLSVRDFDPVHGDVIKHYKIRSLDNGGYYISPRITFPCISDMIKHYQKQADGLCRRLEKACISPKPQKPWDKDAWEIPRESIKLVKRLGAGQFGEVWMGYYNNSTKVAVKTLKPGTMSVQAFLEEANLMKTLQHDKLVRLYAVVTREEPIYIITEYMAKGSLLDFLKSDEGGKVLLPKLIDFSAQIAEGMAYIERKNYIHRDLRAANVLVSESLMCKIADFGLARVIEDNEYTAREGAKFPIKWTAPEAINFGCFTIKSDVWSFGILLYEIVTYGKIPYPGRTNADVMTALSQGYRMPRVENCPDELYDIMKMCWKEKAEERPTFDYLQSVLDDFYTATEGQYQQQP
Assay [4] concerns the target T1, Inhibitor of nuclear factor kappa-B kinase subunit beta (Homo sapiens, UniProt O14920).
T1 sequence (O14920 whole entry): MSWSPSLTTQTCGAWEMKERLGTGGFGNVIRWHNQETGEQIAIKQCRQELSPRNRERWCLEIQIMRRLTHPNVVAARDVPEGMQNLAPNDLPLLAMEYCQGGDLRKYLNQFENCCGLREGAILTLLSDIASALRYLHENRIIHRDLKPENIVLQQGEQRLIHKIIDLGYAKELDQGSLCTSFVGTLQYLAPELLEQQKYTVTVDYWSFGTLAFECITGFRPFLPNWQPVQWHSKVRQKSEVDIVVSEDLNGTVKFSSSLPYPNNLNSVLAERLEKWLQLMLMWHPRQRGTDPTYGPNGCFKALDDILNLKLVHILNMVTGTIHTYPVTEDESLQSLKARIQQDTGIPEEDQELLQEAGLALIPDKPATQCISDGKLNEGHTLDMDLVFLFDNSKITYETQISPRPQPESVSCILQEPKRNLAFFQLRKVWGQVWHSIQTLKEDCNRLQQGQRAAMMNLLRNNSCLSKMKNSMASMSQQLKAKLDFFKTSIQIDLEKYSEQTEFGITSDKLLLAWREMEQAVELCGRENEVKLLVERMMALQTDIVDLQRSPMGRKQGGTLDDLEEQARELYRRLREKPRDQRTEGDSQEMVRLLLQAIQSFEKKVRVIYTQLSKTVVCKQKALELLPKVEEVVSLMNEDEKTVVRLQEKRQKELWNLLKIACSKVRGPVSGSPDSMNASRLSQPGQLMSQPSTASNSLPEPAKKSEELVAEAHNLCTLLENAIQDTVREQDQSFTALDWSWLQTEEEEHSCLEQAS
As to the kind of experiment: Inhibition of IKK2.

Assay [5] addresses Serine/threonine-protein kinase mTOR (Homo sapiens, UniProt P42345). In words: Inhibition of mTOR.
The subject of assay [6] is A-375. In words: Growth inhibition of human A375 cells. It is filed as functional, cell-based.
Assay [7] can be described thus: Growth inhibition of human WM266.4 cells. It is filed as functional, cell-based. Conditions: WM 266-4.
Assay [8] addresses Protein kinase C theta type (Homo sapiens, UniProt Q04759). In words: Inhibition of PKCtheta.
Assay [9] concerns the target Phosphatidylinositol 4,5-bisphosphate 3-kinase catalytic subunit alpha isoform (Homo sapiens, UniProt P42336). As to the kind of experiment: Inhibition of PI3Kalpha.
The target in assay [10] is T2, Tyrosine-protein kinase ITK/TSK (Homo sapiens, UniProt Q08881).
T2 sequence (Q08881 whole entry): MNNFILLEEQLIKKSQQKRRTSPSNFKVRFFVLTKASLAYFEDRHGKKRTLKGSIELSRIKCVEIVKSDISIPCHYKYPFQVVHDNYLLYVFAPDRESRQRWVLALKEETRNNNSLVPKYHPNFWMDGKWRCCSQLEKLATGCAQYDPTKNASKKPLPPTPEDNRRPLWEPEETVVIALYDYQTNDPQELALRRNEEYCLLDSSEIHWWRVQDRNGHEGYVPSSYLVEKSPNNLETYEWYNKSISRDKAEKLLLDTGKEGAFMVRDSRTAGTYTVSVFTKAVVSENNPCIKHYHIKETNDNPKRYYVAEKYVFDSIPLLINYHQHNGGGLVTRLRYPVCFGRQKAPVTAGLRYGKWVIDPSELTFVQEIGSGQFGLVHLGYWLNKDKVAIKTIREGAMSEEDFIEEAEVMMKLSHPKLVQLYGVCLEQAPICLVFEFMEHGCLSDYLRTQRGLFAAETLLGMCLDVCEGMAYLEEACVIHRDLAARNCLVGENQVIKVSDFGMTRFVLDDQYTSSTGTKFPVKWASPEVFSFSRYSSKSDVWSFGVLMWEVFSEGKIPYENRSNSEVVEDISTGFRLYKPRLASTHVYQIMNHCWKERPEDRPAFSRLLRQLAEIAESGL
In words: Inhibition of ITK.

Assay [11] concerns HT-29. As to the kind of experiment: Growth inhibition of human HT-29 cells. It is filed as functional, cell-based.
For assay [12], the target named is Proto-oncogene tyrosine-protein kinase Src (Homo sapiens, UniProt P12931). As to the kind of experiment: Inhibition of SRC.
Chain of Proto-oncogene tyrosine-protein kinase Src (P12931 2-536 limits assumed): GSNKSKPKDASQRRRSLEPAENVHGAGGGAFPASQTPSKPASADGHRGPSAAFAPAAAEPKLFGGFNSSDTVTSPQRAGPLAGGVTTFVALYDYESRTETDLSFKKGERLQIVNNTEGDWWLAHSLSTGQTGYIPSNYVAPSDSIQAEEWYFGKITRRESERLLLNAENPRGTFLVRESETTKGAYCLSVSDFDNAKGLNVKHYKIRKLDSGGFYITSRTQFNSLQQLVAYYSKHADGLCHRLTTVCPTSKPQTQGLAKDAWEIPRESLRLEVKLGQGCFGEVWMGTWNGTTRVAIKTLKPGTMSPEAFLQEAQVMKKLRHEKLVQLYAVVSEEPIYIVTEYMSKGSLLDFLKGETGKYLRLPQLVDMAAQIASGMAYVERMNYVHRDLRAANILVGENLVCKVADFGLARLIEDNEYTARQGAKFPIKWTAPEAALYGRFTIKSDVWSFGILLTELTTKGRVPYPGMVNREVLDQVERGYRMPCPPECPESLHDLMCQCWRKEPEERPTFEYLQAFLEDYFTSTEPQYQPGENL
In assay [13] the target is Cyclin-dependent kinase 4 (Homo sapiens, UniProt P11802). In words: Inhibition of CDK4.
Chain of Cyclin-dependent kinase 4 (P11802 whole entry): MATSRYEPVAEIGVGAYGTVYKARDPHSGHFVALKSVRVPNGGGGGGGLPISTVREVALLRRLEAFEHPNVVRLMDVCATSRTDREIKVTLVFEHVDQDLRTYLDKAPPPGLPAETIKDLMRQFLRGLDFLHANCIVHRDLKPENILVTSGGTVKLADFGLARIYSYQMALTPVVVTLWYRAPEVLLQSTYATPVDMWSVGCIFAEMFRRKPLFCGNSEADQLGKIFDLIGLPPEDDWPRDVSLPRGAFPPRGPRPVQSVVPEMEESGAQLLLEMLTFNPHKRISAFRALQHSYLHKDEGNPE
The test system of assay [14] is Caco-2. In words: Growth inhibition of human Caco-2 cells. It is filed as functional, cell-based.
The test system of assay [15] is LoVo. As to the kind of experiment: Growth inhibition of human LoVo cells. It counts as functional, cell-based.
Assay [16] has as its target RAC-alpha serine/threonine-protein kinase (Homo sapiens, UniProt P31749). In words: Inhibition of AKT.

Chain of Serine/threonine-protein kinase B-raf (P15056 whole entry): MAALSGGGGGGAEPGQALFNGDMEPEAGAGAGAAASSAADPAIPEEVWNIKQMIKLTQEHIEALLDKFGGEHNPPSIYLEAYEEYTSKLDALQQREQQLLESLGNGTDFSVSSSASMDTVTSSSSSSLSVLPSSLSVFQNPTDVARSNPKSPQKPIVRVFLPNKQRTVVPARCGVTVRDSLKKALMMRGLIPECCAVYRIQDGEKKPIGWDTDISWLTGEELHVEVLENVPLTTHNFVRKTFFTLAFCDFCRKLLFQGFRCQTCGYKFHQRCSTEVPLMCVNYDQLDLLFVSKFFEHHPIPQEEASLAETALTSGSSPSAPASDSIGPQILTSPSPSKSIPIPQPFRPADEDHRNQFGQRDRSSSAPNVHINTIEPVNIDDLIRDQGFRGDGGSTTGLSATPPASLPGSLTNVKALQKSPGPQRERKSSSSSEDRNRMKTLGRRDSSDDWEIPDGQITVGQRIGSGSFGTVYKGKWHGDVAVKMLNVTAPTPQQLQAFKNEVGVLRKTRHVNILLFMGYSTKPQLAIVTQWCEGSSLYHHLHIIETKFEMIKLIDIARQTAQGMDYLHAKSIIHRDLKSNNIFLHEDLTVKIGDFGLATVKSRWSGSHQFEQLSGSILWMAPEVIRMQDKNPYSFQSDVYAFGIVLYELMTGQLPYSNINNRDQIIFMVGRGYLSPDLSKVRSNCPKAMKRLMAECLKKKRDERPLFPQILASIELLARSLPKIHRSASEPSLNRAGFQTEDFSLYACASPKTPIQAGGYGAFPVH
Chain of Protein kinase C theta type (Q04759 whole entry, canonical isoform): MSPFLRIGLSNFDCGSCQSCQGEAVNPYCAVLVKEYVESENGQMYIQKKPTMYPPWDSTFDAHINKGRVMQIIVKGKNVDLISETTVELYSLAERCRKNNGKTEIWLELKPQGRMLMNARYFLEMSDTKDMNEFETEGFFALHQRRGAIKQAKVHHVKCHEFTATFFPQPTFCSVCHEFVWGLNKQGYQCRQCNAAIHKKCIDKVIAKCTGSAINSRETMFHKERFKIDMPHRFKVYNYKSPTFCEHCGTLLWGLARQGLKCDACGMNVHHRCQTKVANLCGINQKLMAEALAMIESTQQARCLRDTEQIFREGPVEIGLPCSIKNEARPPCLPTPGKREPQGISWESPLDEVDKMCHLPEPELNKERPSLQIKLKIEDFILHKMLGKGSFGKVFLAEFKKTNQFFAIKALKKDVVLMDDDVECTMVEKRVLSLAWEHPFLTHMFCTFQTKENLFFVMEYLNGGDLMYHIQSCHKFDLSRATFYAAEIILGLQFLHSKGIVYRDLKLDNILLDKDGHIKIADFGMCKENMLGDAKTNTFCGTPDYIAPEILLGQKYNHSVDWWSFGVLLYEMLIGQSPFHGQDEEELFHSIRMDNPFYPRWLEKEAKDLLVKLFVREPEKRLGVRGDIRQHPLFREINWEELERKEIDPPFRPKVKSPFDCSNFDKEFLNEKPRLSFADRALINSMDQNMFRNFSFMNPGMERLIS
Chain of Phosphatidylinositol 4,5-bisphosphate 3-kinase catalytic subunit alpha isoform (P42336 whole entry, canonical isoform): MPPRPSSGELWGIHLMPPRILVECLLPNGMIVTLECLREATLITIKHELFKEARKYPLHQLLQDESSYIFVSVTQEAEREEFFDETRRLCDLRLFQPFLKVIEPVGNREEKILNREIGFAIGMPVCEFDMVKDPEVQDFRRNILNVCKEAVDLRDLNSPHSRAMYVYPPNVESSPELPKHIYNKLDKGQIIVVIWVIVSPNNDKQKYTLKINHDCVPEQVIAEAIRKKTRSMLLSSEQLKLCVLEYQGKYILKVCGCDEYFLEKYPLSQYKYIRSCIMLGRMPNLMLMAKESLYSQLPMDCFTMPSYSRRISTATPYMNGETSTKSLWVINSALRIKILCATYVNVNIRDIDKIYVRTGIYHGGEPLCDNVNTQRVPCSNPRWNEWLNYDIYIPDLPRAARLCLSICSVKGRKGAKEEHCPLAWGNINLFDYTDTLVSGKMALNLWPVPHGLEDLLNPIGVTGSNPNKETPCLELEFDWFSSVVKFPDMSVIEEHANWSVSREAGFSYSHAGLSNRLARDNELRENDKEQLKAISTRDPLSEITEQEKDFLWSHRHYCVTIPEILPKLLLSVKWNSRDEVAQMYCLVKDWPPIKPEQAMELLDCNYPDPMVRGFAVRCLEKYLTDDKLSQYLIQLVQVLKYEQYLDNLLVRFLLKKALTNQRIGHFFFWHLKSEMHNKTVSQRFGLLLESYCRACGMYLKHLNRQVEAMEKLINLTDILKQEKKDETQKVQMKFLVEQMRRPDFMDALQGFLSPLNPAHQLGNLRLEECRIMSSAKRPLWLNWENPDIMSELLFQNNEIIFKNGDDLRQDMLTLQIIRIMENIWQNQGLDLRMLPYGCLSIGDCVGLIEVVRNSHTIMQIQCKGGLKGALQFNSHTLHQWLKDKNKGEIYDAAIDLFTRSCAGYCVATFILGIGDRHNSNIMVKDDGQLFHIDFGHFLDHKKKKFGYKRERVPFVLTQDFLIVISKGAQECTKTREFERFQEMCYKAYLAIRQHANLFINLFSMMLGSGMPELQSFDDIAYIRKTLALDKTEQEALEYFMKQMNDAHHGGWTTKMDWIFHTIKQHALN
Chain of Tyrosine-protein kinase BTK (Q06187 whole entry): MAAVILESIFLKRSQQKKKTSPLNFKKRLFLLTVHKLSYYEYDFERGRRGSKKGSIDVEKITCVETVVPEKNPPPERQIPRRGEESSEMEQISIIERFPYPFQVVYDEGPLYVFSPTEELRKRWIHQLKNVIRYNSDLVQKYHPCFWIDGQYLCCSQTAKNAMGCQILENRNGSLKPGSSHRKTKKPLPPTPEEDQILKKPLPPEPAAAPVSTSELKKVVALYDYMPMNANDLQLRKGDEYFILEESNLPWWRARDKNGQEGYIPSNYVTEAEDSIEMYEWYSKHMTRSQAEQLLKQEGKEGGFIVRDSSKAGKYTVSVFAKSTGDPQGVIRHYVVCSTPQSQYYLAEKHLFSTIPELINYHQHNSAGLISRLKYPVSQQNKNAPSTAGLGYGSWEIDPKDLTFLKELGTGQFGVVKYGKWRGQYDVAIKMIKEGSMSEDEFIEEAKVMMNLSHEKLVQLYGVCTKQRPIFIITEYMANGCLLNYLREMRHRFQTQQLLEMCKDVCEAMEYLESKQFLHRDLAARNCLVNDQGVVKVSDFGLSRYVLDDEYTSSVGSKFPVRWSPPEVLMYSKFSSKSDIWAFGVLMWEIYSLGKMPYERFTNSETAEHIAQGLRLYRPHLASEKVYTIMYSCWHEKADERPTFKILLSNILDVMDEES
Chain of RAC-alpha serine/threonine-protein kinase (P31749 whole entry): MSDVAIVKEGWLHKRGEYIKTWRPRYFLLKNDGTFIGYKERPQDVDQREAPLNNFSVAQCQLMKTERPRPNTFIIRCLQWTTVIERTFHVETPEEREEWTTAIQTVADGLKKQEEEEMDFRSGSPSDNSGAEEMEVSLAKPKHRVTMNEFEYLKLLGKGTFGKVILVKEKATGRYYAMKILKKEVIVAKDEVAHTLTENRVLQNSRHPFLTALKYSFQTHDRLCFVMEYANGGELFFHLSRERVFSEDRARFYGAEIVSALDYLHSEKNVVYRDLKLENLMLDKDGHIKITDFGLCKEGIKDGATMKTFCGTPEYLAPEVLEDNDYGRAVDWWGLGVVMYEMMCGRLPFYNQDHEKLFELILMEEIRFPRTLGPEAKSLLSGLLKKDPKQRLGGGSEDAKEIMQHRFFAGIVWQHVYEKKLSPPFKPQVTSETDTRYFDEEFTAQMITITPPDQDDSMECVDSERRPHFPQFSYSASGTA

One may read the IC50 as the concentration needed to halve the response being measured. Read a low IC50 as higher potency. `N#Cc1cnc2cc(-c3cccnc3)sc2c1-c1cccc(NC(=O)c2cccc(C(F)(F)F)c2)c1` showed an IC50 in [1] greater than 10 µM.

Compound `N#Cc1cnc2sc(-c3cccnc3)cc2c1-c1cccc(NC(=O)c2cccc(C(F)(F)F)c2)c1` came in with an IC50 in assay [1] greater than 10 µM.

The compound `O=C(Nc1cccc(-c2ncnc3cc(-c4cccnc4)sc23)c1)c1cccc(C(F)(F)F)c1` yielded an IC50 in assay [1] greater than 10 µM.

The compound `N#Cc1cnc2sc(-c3ccncc3)cc2c1-c1cccc(NC(=O)c2cccc(C(F)(F)F)c2)c1` gave a concentration for half-maximal inhibition (IC50) in assay [1] greater than 10 µM.

As to `O=C(Nc1cccc(-c2ccnc3cc(-c4cccnc4)nn23)c1)c1cccc(C(F)(F)F)c1`, in assay [1], the IC50 is greater than 10 µM.

In the case of `O=C(Nc1cccc(-c2ncnc3sc(-c4ccncc4)cc23)c1)c1cccc(C(F)(F)F)c1`, the half-maximal inhibitory concentration (IC50) in assay [2] was greater than 10 µM; in assay [3], greater than 10 µM; in assay [4], greater than 10 µM; in assay [5], greater than 10 µM; in assay [6], 230 nM; in assay [7] it was 3.1 µM. Further, the IC50 was greater than 10 µM in assay [8]; greater than 10 µM in assay [9]; greater than 10 µM in [10]; 150 nM in assay [11]; greater than 10 µM in assay [12]; greater than 10 µM in assay [13]. For the same compound, the 50% inhibitory concentration (IC50) in assay [14] is 1100 nM; in assay [15], 300 nM; in assay [16], greater than 10 µM.
